# In ChEMBL document CHEMBL4190187, “Discovery of pyrazolopyrimidine derivatives as novel inhibitors of ataxia telangiectasia and rad3 related protein (ATR)” (Bioorg Med Chem Lett, 2017):
# Experiments:
# [1] = molecular target: Vascular endothelial growth factor receptor 2 (Homo sapiens) (UniProt P35968); test: Inhibition of recombinant human KDR (790 to end residues) at 1 uM using myelin basic protein as substrate after 40 mins in presence of [gamma-33P]ATP by scintillation counting method
# [2] = molecular target: CDK6/cyclin D3 (Homo sapiens) (UniProt P30281+Q00534); test: Inhibition of recombinant full-length human CDK6/Cyclin D3 at 1 uM using histone H1 as substrate after 40 mins in presence of [gamma-33P]ATP by scintillation counting method; assay type: protein-complex assay
# [3] = molecular target: Interferon-induced, double-stranded RNA-activated protein kinase (Homo sapiens) (UniProt P19525); test: Inhibition of recombinant human PKR (501 to end residues) at 1 uM using AKRRRLSSLRA as substrate after 40 mins in presence of [gamma-33P]ATP by scintillation counting method
# [4] = molecular target: PI3-kinase p110-alpha/p85-alpha (Homo sapiens) (UniProt P27986+P42336); test: Inhibition of recombinant full-length human p110a/p85a at 1 uM using phosphatidylinositol 4,5-bisphosphate as substrate after 40 mins in presence of [gamma-33P]ATP by scintillation counting method; assay type: protein-complex assay
# [5] = molecular target: Serine/threonine-protein kinase Nek7 (Homo sapiens) (UniProt Q8TDX7); test: Inhibition of recombinant human NEK7 (2 to end residues) at 1 uM using FLAKSFGSPNRAYKK as substrate after 40 mins in presence of [gamma-33P]ATP by scintillation counting method
# Serine/threonine-protein kinase Nek7 (Homo sapiens), sequence (Q8TDX7 whole entry, looked up): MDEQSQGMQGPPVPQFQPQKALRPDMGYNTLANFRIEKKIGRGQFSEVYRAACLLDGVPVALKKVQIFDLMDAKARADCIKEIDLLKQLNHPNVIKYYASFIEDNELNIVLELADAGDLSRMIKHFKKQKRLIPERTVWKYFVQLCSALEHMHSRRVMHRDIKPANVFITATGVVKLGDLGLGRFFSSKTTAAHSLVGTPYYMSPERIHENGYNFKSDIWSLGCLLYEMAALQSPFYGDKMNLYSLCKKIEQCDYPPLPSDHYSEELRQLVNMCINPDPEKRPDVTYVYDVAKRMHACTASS
# [6] = tested on: Tyrosine-protein kinase ABL1 (Homo sapiens), P00519 [H396P]; test: Inhibition of recombinant human Abl H396P mutant (27 to end residues) at 1 uM using EAIYAAPFAKKK as substrate after 40 mins in presence of [gamma-33P]ATP by scintillation counting method
# [7] = molecular target: SRSF protein kinase 1 (Homo sapiens) (UniProt Q96SB4); test: Inhibition of recombinant human SRPK1 (2 to end residues) at 1 uM using RSRSRSRSRSRSRSR as substrate after 40 mins in presence of [gamma-33P]ATP by scintillation counting method
# SRSF protein kinase 1 (Homo sapiens), sequence (Q96SB4 whole entry): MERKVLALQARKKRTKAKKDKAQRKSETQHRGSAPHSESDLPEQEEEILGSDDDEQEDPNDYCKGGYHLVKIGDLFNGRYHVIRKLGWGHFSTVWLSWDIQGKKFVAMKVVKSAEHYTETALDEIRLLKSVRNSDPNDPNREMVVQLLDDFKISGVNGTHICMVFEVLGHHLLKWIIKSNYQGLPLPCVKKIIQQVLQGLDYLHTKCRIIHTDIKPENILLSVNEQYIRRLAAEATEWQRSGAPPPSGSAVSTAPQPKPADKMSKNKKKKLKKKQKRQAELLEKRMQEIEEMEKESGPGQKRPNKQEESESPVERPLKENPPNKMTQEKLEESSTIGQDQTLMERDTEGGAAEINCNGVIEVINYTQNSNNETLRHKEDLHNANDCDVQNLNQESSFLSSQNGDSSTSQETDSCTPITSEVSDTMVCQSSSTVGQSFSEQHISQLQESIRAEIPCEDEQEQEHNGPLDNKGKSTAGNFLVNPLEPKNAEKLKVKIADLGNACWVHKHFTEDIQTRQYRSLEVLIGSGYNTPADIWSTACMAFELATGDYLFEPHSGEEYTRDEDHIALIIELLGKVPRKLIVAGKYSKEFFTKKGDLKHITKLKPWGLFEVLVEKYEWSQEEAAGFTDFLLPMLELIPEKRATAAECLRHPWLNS
# [8] = molecular target: Serine/threonine-protein kinase NLK (Homo sapiens) (UniProt Q9UBE8); test: Inhibition of recombinant human NLK (121 to end residues) at 1 uM using myelin basic protein as substrate after 40 mins in presence of [gamma-33P]ATP by scintillation counting method
# [9] = molecular target: Serine/threonine-protein kinase BRSK1 (Homo sapiens) (UniProt Q8TDC3); test: Inhibition of recombinant human BrSK1 (2 to end residues) at 1 uM using KKKVSRSGLYRSPSMPENLNRPR as substrate after 40 mins in presence of [gamma-33P]ATP by scintillation counting method
# Serine/threonine-protein kinase BRSK1 (Homo sapiens), sequence (Q8TDC3 whole entry): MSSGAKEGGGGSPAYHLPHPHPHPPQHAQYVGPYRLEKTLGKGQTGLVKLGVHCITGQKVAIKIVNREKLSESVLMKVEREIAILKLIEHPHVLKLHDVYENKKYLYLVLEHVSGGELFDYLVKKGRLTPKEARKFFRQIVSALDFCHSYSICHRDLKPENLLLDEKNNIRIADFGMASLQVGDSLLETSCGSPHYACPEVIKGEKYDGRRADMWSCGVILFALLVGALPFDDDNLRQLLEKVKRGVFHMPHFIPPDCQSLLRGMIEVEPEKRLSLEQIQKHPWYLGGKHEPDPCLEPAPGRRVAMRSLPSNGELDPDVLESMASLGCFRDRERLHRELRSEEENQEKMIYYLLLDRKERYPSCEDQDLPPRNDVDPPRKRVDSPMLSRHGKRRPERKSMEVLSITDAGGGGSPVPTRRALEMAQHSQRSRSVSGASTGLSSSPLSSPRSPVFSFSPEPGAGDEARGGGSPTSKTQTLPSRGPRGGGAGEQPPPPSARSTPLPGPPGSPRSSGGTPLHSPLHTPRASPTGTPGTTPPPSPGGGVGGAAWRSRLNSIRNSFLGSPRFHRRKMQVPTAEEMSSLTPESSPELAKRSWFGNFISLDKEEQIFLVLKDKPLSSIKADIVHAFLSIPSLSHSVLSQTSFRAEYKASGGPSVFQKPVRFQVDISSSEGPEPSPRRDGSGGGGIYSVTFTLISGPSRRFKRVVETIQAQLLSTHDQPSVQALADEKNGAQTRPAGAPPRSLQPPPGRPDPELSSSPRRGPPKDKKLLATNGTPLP
# [10] = molecular target: NUAK family SNF1-like kinase 1 (Homo sapiens) (UniProt O60285); test: Inhibition of recombinant human ARK5 (2 to end residues) at 1 uM using KKKVSRSGLYRSPSMPENLNRPR as substrate after 40 mins in presence of [gamma-33P]ATP by scintillation counting method
# NUAK family SNF1-like kinase 1 (Homo sapiens), sequence (O60285 whole entry): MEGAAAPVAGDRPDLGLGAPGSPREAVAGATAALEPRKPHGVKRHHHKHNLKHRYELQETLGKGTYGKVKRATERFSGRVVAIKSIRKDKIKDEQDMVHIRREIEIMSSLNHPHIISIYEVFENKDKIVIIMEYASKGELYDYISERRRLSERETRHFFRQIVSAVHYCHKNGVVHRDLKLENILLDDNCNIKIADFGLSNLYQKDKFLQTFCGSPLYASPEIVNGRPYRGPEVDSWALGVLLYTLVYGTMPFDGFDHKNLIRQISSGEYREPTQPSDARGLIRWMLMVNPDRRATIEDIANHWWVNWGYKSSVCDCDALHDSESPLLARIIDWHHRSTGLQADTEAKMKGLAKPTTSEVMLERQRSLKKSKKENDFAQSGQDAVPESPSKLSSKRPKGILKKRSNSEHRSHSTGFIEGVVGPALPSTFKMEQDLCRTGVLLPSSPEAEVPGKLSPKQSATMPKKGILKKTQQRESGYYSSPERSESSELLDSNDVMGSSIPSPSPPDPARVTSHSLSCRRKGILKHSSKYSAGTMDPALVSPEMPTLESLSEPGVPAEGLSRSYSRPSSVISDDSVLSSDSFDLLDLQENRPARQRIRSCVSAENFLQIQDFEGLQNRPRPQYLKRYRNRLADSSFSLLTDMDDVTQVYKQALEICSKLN
# [11] = molecular target: Mitogen-activated protein kinase 9 (Homo sapiens) (UniProt P45984); test: Inhibition of recombinant full-length human JNK2alpha2 at 1 uM using ATF2 as substrate after 40 mins in presence of [gamma-33P]ATP by scintillation counting method
# [12] = molecular target: Protein kinase C beta type (Homo sapiens) (UniProt P05771); test: Inhibition of recombinant human PKCbeta2 (2 to end residues) at 1 uM using histone H1 as substrate after 40 mins in presence of [gamma-33P]ATP by scintillation counting method
# [13] = tested on: Tyrosine-protein kinase ABL1 (Homo sapiens), P00519 [T315I]; test: Inhibition of recombinant human Abl T315I mutant (27 to end residues) at 1 uM using EAIYAAPFAKKK as substrate after 40 mins in presence of [gamma-33P]ATP by scintillation counting method
# [14] = molecular target: Tau-tubulin kinase 2 (Homo sapiens) (UniProt Q6IQ55); test: Inhibition of recombinant human TTBK2 (1 to 331 residues) at 1 uM using casein as substrate after 40 mins in presence of [gamma-33P]ATP by scintillation counting method
# [15] = molecular target: Serine/threonine-protein kinase BRSK2 (Homo sapiens) (UniProt Q8IWQ3); test: Inhibition of recombinant human BrSK2 (2 to end residues) at 1 uM using KKLNRTLSFAEPG as substrate after 40 mins in presence of [gamma-33P]ATP by scintillation counting method
# Serine/threonine-protein kinase BRSK2 (Homo sapiens), sequence (Q8IWQ3 whole entry): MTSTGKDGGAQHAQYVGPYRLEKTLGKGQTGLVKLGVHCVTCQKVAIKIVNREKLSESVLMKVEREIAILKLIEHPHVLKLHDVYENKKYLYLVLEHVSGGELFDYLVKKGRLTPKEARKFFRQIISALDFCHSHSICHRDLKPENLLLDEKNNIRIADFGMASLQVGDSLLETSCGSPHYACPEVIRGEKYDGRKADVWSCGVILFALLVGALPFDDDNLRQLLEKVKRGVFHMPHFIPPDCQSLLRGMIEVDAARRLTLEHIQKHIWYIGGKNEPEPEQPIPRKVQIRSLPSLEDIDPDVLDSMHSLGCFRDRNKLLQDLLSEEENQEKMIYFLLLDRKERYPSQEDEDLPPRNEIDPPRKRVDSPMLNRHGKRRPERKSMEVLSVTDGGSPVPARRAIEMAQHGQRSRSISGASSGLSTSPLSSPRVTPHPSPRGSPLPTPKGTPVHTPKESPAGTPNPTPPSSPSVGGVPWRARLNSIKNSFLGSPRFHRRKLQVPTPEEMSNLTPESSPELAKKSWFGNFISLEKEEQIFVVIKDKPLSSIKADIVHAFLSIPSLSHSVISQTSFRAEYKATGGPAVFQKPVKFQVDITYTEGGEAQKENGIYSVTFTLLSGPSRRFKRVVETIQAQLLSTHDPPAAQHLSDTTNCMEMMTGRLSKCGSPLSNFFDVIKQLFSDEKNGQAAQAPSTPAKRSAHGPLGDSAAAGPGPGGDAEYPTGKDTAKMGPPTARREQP
# [16] = molecular target: Serine/threonine-protein kinase ULK3 (Homo sapiens) (UniProt Q6PHR2); test: Inhibition of recombinant full-length human ULK3 at 1 uM using casein as substrate after 40 mins in presence of [gamma-33P]ATP by scintillation counting method
# [17] = molecular target: CDK7/Cyclin H/MNAT1 (Homo sapiens) (UniProt P51946+P50613+P51948); test: Inhibition of recombinant full-length human CDK7/CyclinH/MAT1 at 1 uM using peptide as substrate after 40 mins in presence of [gamma-33P]ATP by scintillation counting method; assay type: protein-complex assay
# [18] = tested on: Platelet-derived growth factor receptor alpha (Homo sapiens), P16234 [D842V]; test: Inhibition of recombinant human PDGFRalpha D842V mutant (550 to end residues) at 1 uM using GGMEDIYFEFMGGKKK as substrate after 40 mins in presence of [gamma-33P]ATP by scintillation counting method
# [19] = tested on: Mast/stem cell growth factor receptor Kit (Homo sapiens), P10721 [V654A]; test: Inhibition of recombinant human cKit V654A mutant (544 to end residues) at 1 uM using GGMEDIYFEFMGGKKK as substrate after 40 mins in presence of [gamma-33P]ATP by scintillation counting method
# Mast/stem cell growth factor receptor Kit (Homo sapiens), P10721 [V654A], sequence (P10721 whole entry V654A): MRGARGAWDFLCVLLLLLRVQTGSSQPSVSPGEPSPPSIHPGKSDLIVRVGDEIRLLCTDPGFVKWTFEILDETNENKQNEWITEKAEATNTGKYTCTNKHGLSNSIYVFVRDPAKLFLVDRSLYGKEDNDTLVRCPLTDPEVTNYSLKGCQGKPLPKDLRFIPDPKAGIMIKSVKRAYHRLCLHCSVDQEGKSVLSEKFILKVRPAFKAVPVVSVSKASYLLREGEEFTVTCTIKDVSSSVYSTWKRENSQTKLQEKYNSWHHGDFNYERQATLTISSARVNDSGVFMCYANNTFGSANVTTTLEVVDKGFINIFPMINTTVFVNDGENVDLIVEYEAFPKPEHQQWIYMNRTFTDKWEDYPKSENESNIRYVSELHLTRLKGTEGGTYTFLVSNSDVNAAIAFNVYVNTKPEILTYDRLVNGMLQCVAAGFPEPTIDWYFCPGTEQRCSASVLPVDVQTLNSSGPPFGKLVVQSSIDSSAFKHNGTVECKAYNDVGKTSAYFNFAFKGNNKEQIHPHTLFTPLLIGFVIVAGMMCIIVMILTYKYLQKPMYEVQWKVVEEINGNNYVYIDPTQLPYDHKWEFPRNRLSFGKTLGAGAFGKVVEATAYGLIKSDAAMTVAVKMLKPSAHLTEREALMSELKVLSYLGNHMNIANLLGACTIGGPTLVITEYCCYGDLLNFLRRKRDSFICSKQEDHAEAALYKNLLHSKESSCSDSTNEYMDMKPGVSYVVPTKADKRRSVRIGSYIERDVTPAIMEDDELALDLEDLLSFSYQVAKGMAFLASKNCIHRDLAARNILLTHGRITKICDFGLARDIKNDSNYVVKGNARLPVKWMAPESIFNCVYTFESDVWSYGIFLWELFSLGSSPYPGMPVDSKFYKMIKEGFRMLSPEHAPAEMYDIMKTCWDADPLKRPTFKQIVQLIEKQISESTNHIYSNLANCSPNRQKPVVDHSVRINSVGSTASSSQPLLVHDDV
# [20] = molecular target: Inhibitor of nuclear factor kappa-B kinase subunit epsilon (Homo sapiens) (UniProt Q14164); test: Inhibition of recombinant full-length human IKKepsilon at 1 uM using casein as substrate after 40 mins in presence of [gamma-33P]ATP by scintillation counting method
# Inhibitor of nuclear factor kappa-B kinase subunit epsilon (Homo sapiens), sequence (Q14164 whole entry): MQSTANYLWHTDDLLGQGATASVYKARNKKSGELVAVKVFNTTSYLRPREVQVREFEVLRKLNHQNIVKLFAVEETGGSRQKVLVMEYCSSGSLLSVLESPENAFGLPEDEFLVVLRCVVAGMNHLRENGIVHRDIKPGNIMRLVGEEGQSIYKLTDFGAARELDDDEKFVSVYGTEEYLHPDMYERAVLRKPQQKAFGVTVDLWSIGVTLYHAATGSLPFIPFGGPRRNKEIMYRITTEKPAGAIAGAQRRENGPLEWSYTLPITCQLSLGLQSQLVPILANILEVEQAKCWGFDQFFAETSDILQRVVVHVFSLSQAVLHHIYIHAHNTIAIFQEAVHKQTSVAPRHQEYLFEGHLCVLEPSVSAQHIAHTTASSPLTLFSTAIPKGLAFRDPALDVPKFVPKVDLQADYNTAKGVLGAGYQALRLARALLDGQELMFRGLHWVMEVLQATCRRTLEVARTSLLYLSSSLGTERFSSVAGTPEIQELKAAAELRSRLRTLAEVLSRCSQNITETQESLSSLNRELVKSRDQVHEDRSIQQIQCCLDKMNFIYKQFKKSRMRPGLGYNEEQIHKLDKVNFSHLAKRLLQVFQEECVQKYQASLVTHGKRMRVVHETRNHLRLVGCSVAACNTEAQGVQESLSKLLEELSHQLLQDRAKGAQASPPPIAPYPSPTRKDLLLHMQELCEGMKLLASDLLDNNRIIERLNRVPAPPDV
# [21] = molecular target: PI3-kinase p110-delta/p85-alpha (Homo sapiens) (UniProt P27986+O00329); test: Inhibition of recombinant full-length human p110d/p85a at 1 uM using phosphatidylinositol 4,5-bisphosphate as substrate after 40 mins in presence of [gamma-33P]ATP by scintillation counting method; assay type: protein-complex assay
# [22] = molecular target: Cyclin-dependent kinase 2/cyclin E1 (Homo sapiens) (UniProt P24864+P24941); test: Inhibition of recombinant full-length human CDK2/Cyclin E at 1 uM using histone H1 as substrate after 40 mins in presence of [gamma-33P]ATP by scintillation counting method; assay type: protein-complex assay
# [23] = molecular target: Protein kinase C gamma type (Homo sapiens) (UniProt P05129); test: Inhibition of recombinant full-length human PKCgamma at 1 uM using histone H1 as substrate after 40 mins in presence of [gamma-33P]ATP by scintillation counting method
# [24] = molecular target: Protein-tyrosine kinase 2-beta (Homo sapiens) (UniProt Q14289); test: Inhibition of recombinant full-length human Pyk2 at 1 uM using poly(Glu,Tyr) 4:1 as substrate after 40 mins in presence of [gamma-33P]ATP by scintillation counting method
structure (smiles),measurement,setting,value
CS(=O)(=O)c1ccc(-n2nc(-c3cnc4[nH]ccc4c3)c3c(N)ncnc32)cc1,inhibition,[1],72%
same,inhibition,[2],-6%
same,inhibition,[3],13%
same,inhibition,[4],6%
same,inhibition,[5],-1%
same,inhibition,[6],79%
same,inhibition,[7],1%
same,inhibition,[8],18%
same,inhibition,[9],13%
same,inhibition,[10],15%
same,inhibition,[11],-6%
same,inhibition,[12],-4%
same,inhibition,[13],13%
same,inhibition,[14],4%
same,inhibition,[15],3%
same,inhibition,[16],16%
same,inhibition,[17],7%
same,inhibition,[18],47%
same,inhibition,[19],30%
same,inhibition,[20],3%
same,inhibition,[21],42%
same,inhibition,[22],3%
same,inhibition,[23],3%
same,inhibition,[24],25%
